From patent US10738028B2, “Spiro three-membered ring, spiro five-membered ring peptide deformylase inhibitor and use thereof in antibacteria and anti-tumor” (priority 2016, dated 2020)
Like-named read-outs stand apart in the source and are kept apart here.

Tests used:
the test strains = test: MIC against the test strains (strain not given); assay type: cell-based; conditions: read-out: MIC (azole amide bioisosteres)
Source text: 1. The invention adopts the two-fold agar dilution method recommended by the operating procedure of antimicrobial susceptibility testing set by American Clinical and Laboratory Standards Institute (CLSI) to determine the Minimum Inhibitory Concentration (MIC) of the test samples against the tested strains.

[1] = system: HCT-116 colorectal cancer cell line; test: CCK-8 proliferation inhibition; assay type: cell-based; conditions: for inhibition at 30 µM: Homo sapiens, HCT-116, 72 h, read-out: HCT116 inhibition rate/%
How it was run: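 Cells were plated overnight at 2000 cells/well, then compound in culture medium was added at a range of final concentrations. After 72 hours in a CO2 incubator, medium was replaced with 1:10 CCK-8 solution for the read-out.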

[2] = system: Escherichia coli (including ESBLs, non-ESBLs); test: MIC, two-fold agar dilution (CLSI), clinical isolates; assay type: cell-based
How it was run: (§1)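 Following the American Clinical and Laboratory Standards Institute procedure, agar two-fold dilution served to determine minimum inhibitory concentrations.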

[3] = system: methicillin-sensitive Staphylococcus epidermidis (MSSE); test: as above; assay type: cell-based
How it was run: as §1

[4] = system: methicillin-resistant Staphylococcus aureus (MRSA); test: as above; assay type: cell-based
How it was run: as §1

[5] = system: methicillin-sensitive Staphylococcus aureus (MSSA); test: as above; assay type: cell-based
How it was run: as §1

[6] = system: Enterococcus faecalis (EFA); test: as above; assay type: cell-based
How it was run: as §1

[7] = system: methicillin-resistant Staphylococcus epidermidis (MRSE); test: as above; assay type: cell-based
How it was run: as §1

[8] = system: methemoglobin in blood samples of three healthy volunteers; test: Toxicity on methemoglobin in vitro (whole blood with S9 and NADPH, absorbance at 630 nm); assay type: cell-based, human; conditions: 500 μM compound; whole blood + S9 + NADPH; 5 hours at 37° C.
Procedure: Because PDF inhibitors such as LBM415 and GSK1322322 can produce active species such as aromatic hydroxylamine and aromatic hydrazines in metabolic process, and cause human methemoglobinemia. To this end, continuous wavelength method was adopted in this invention to scan the absorption spectrum of blood samples in the wavelength range of 500 to 700 nm in the ultraviolet-visible spectrophotometer, and the contents of methemoglobin in blood samples of three healthy volunteers were calculated, after being effected by the synthesized compounds.
Experimental materials: Nicotinamide adenine dinucleotide phosphate (NADPH) reduction system: glucose-6-disodium phosphate, nicotinamide adenine dinucleoside phosphate and glucose-6-phosphate dehydrogenase (purchased from Shanghai yuanye Bio-Technology Co., Ltd) were added to 1 mL of phosphate buffer solution (PBS, pH 7.4), and the mixture was shaked in a shaker type water bath at 37° C. for 10 min, and then cooled to 0° C. Mixed human hepatocytes fraction S9 was purchased from Xenotech (20 mg S9 protein/1 mL suspension medium). Compounds were prepared to stock solution at a concentration of 50 mM, which was stored at −20° C. for use. Dapsone was used as positive control experimental reagent, which was purchased from Sigma Aldrich. 1% w/v triton X-100 was self-prepared. Blood samples were collected using Vacutainer tubes containing EDTA anticoagulants (BD, Franklin Lakes, USA), which were sampled from three healthy volunteers and used immediately after sampling.
Preparation of incubation system for blood samples and drugs: 250 μL of incubation system was consist of 220 μL of whole blood, 25 μL of S9 (final concentration: 2 mg S9 protein/mL incubation solution), 2.5 μL of NADPH form system (final concentration: 10 mM G-6-P, 1 mM NADP, 7.5 Units/mL) and 2.5 μL of stock solution of a compound (final concentration 500 μM). […] of incubation system was placed in an Eppendorf tube and incubated for 5 hours at 37° C. in water bath.
Determination of the content of methemoglobin: 60 μL of an incubated sample was taken and lysed with 3.0 mL of 1% Triton X-100. The content of methemoglobin (MetHb) was measured by an ultraviolet-visible spectrophotometer, with the Triton X-100 solution used as blank control. A sample was placed in a cuvette, 1 minute later, the spectrums of the sample in the wavelength range from 500 nm to 700 nm were recorded. The sample was added with 2 mg of potassium ferricyanide, and was allowed to stay stationary for 2 minutes for completely oxidization of ferrous iron in the sample, and standard spectrum of methemoglobin with saturated potassium ferricyanide. The percentage of methemoglobin formation (MetHb %) was obtained by the ratio of absorbance at 630 nm. MetHb %=(A′−AB′)/AM′, wherein, A′ was the total absorbance of the sample at 630 nm, AB′ was the base absorbance of the reduced blood in the sample at 630 nm, and AM′ was the absorbance of oxidized blood with saturated potassium ferricyanide at 630 nm.

[9] = system: Moraxella catarrhalis (BCA); test: MIC, two-fold agar dilution (CLSI), clinical isolates; assay type: cell-based
How it was run: as §1

[10] = system: Enterococcus faecium (EFM); test: as above; assay type: cell-based
How it was run: as §1

[11] = system: Streptococcus pneoumoniae (SPN); test: as above; assay type: cell-based
How it was run: as §1

[12] = system: BEL-7402 liver cancer cell line; test: CCK-8 proliferation inhibition; assay type: cell-based; conditions: concentration of 30 μM
How it was run: (§2)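 Plating at 2000 cells/well, then incubation overnight at 37° C. Next, a range of compound concentrations for 72 hours (control 1‰ DMSO). Finally, medium decanted and CCK-8 diluted 1:10 added.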

[13] = system: A549 lung cancer cell line; test: CCK-8 proliferation inhibition; assay type: cell-based; conditions: Homo sapiens, A549, 72 h, concentration of 30 μM
How it was run: as §2

[14] = system: MGC-803 gastric cancer cell line; test: CCK-8 proliferation inhibition; assay type: cell-based; conditions: concentration of 30 μM
How it was run: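 Proliferation was measured with 1:10 diluted CCK-8 after a 72-hour incubation with the inhibitors at various final concentrations, using 1‰ DMSO as the control. Cells were plated at 2000 per well. Culture media contained 10% newborn bovine serum: 1640 for Jurkat and MGC-803, F12 for PC3, DMEM high glucose for MCF-7.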

CCCC[C@H](CN(O)C=O)C(=O)N1CC2(CC2)C[C@H]1c1nc(-c2cccnc2)no1 [Example 11, N-hydroxy-N—((R)-2-((S)-6-(3-(pyridin-3-yl)-1,2,4-oxadiazol-5-yl)-5-azaspiro[2.4]heptane-5-carbonyl)hexyl)carboxamide]
1.26 ± 0.07%: MetHb % (n = 3) [8]
2 µg/mL: MIC (anti-bacterial activity) ([6]; strain EFA 14-1) | MIC (anti-bacterial activity) ([6]; strain EFA 14-2) | MIC (anti-bacterial activity) ([6]; strain EFA 14-3) | MIC (anti-bacterial activity) ([6]; strain EFA 14-5)
0.125 µg/mL: MIC (anti-bacterial activity) ([3]; strain MSSE 14-1) | MIC (anti-bacterial activity) ([3]; strain MSSE 14-3) | MIC (anti-bacterial activity) ([7]; strain MRSE 14-3)
0.5 to 2 µg/mL: MIC (the test strains)
17%: inhibition at 30 µM [1]
64 µg/mL: MIC (anti-bacterial activity) ([2]; strain ECO− 14-1) | MIC (anti-bacterial activity) ([2]; strain ECO− 14-2)
0.5 µg/mL: MIC (anti-bacterial activity) ([3]; strain MSSE 14-2) | MIC (anti-bacterial activity) ([3]; strain MSSE 14-4) | MIC (anti-bacterial activity) ([4]; strain MRSA 14-1) | MIC (anti-bacterial activity) ([4]; strain MRSA 14-2) | MIC (anti-bacterial activity) ([4]; strain MRSA 14-4) | MIC (anti-bacterial activity) ([4]; strain MRSA 14-5) | MIC (anti-bacterial activity) ([5]; strain MSSA 14-1) | MIC (anti-bacterial activity) ([5]; strain MSSA 14-2) | MIC (anti-bacterial activity) ([5]; strain MSSA 14-3) | MIC (anti-bacterial activity) ([5]; strain MSSA 14-4) | MIC (anti-bacterial activity) ([7]; strain MRSE 14-4)
1 µg/mL: MIC (anti-bacterial activity) ([2]; strain ECO+ 14-1)
0.25 µg/mL: MIC (anti-bacterial activity) ([4]; strain printed MRSA 14-1 (second line of that name, r23, before MRSE 14-2)) | MIC (anti-bacterial activity) ([7]; strain MRSE 14-2)
32 µg/mL: MIC (anti-bacterial activity) ([2]; strain ECO+ 14-2)

O=C(C[C@@H](CC1CCCC1)C(=O)N1CC2(CC2)C[C@H]1c1nc2ccccc2[nH]1)NO [Example 75, (R)-4-((S)-6-(1H-benzimidazol-2-yl)-5-azaspiro[2.4]heptane-5-yl)-3-(cyclopentylmethyl)-N-hydroxy-4-oxobutanamide]
0.5 to 2 µg/mL: MIC (the test strains)
4 µg/mL: Anti-bacterial activity (MIC) ([9]; strain BCA 14-1) | Anti-bacterial activity (MIC) ([9]; strain BCA 14-7) | Anti-bacterial activity (MIC) ([9]; strain BCA 14-8) | Anti-bacterial activity (MIC), strain MRSE 15-3 ([7]; clinical isolate MRSE 15-3) | Anti-bacterial activity (MIC), strain MRSE 15-7 ([7]; clinical isolate MRSE 15-7)
> 32 µg/mL: Anti-bacterial activity (MIC) ([10]; strain EFM 15-1) | Anti-bacterial activity (MIC) ([10]; strain EFM 15-2) | Anti-bacterial activity (MIC) ([10]; strain EFM 15-3) | Anti-bacterial activity (MIC) ([6]; strain EFA 15-1) | Anti-bacterial activity (MIC) ([6]; strain EFA 15-2) | Anti-bacterial activity (MIC) ([6]; strain EFA 15-3) | Anti-bacterial activity (MIC) ([6]; strain EFA 15-4) | Anti-bacterial activity (MIC) ([6]; strain EFA 15-5) | Anti-bacterial activity (MIC) ([6]; strain EFA 15-6) | Anti-bacterial activity (MIC) ([6]; strain EFA 15-9)
59%: HCT116 inhibition rate/% ([1]; concentration of 30 μM, 72 hours, CCK-8, 30 µM)
70%: Inhibition of proliferation, Liver cancer BEL-7402 ([12]; 72 hours, 30 µM)
2 µg/mL: Anti-bacterial activity (MIC) ([9]; strain BCA 14-5) | Anti-bacterial activity (MIC) ([9]; strain BCA 14-10) | Anti-bacterial activity (MIC), strain MRSA 15-2 ([4]; clinical isolate MRSA 15-2) | Anti-bacterial activity (MIC) ([10]; strain EFM 15-4) | Anti-bacterial activity (MIC) ([10]; strain EFM 15-5) | Anti-bacterial activity (MIC) ([10]; strain EFM 15-6) | Anti-bacterial activity (MIC), strain MSSA 15-3 ([5]; clinical isolate MSSA 15-3) | Anti-bacterial activity (MIC), strain MRSE 15-2 ([7]; clinical isolate MRSE 15-2)
45%: inhibition at 30 µM [13]
0.5 µg/mL: Anti-bacterial activity (MIC), strain MSSE 15-6 ([3]; clinical isolate MSSE 15-6) | Anti-bacterial activity (MIC), strain MSSA 15-4 ([5]; clinical isolate MSSA 15-4) | Anti-bacterial activity (MIC), strain MSSA 15-5 ([5]; clinical isolate MSSA 15-5) | Anti-bacterial activity (MIC) ([11]; strain SPN 16-4)
51%: Inhibition of proliferation, Gastric cancer MGC-803 ([14]; 72 hours, 30 µM)
1 µg/mL: Anti-bacterial activity (MIC), strain MSSE 15-3 ([3]; clinical isolate MSSE 15-3) | Anti-bacterial activity (MIC), strain MSSE 15-4 ([3]; clinical isolate MSSE 15-4) | Anti-bacterial activity (MIC), strain MSSE 15-5 ([3]; clinical isolate MSSE 15-5) | Anti-bacterial activity (MIC), strain MRSA 15-1 ([4]; clinical isolate MRSA 15-1) | Anti-bacterial activity (MIC), strain MRSA 15-3 ([4]; clinical isolate MRSA 15-3) | Anti-bacterial activity (MIC), strain MRSA 15-4 ([4]; clinical isolate MRSA 15-4) | Anti-bacterial activity (MIC) ([11]; strain SPN 16-2) | Anti-bacterial activity (MIC), strain MRSE 15-1 ([7]; clinical isolate MRSE 15-1)
> 50%: inhibition at 30 µM ([1]; concentration of 30 μM, 72 hours, CCK-8) | inhibition at 30 µM ([12]; Homo sapiens, Bel-7402, 72 h) | inhibition at 30 µM ([14]; Homo sapiens, MGC-803, 72 h)
16 µg/mL: Anti-bacterial activity (MIC), strain ECO+ 15-1 ([2]; clinical isolate ECO+ 15-1) | Anti-bacterial activity (MIC), strain ECO+ 15-4 ([2]; clinical isolate ECO+ 15-4) | Anti-bacterial activity (MIC), strain ECO− 15-1 ([2]; clinical isolate ECO− 15-1) | Anti-bacterial activity (MIC), strain MSSA 15-6 ([5]; clinical isolate MSSA 15-6)
32 µg/mL: Anti-bacterial activity (MIC), strain ECO+ 15-2 ([2]; clinical isolate ECO+ 15-2) | Anti-bacterial activity (MIC), strain ECO+ 15-3 ([2]; clinical isolate ECO+ 15-3) | Anti-bacterial activity (MIC), strain ECO− 15-2 ([2]; clinical isolate ECO− 15-2) | Anti-bacterial activity (MIC), strain ECO− 15-3 ([2]; clinical isolate ECO− 15-3) | Anti-bacterial activity (MIC), strain ECO− 15-4 ([2]; clinical isolate ECO− 15-4)
8 µg/mL: Anti-bacterial activity (MIC) ([9]; strain BCA 14-4) | Anti-bacterial activity (MIC) ([9]; strain BCA 14-6)
